Laboratory results as given in paper PMC8883477 (Journal of Medicinal Chemistry, 2022).
≈ marks a conversion by molar mass, not a printed value. Where “and” joins values, the source holds several entries; their conditions need not be identical. Equal entries are not always repeated.

What was measured:
[1] = DMSO-d6, 25–85 °C
[2] = physchem; conditions: pH 7.4
[3] = physchem; conditions: pH 7.4; remark: listed apart in the source
[4] = biological target: Keap1 (Kelch domain = aa321–aa609) (Homo sapiens, UniProt Q14145); assay: biochemical; conditions: KD SPR, supplementary CSV; ISA format

With `CC(=O)N1CCC[C@H]1C(=O)N[C@@H]1COC(=O)c2ccccc2COC[C@H](C(=O)N(C)C)NC1=O` [Compound 6, (4R,7R)-7-((S)-1-Acetylpyrrolidine-2-carboxamido)-N,N-dimethyl-6,10-dioxo-1,3,4,5,6,7,8,10-octahydrobenzo[j][1,8]dioxa[4]azacyclododecine-4-carboxamide] the “Δδ/T, NHA (cysteine NH)” value [1] was 3.50 ppb/K and the “Δδ/T, NHB (serine NH)” value [1] was 3.5 ppb/K and 3.53 ppb/K.
`CC(=O)N1CCC[C@H]1C(=O)N[C@@H]1COC(=O)c2cccc(-c3ccc(C(=O)O)cc3)c2CSC[C@H](C(=O)N(C)C)NC1=O` [Compound 64, 4-((4S,7R)-7-((S)-1-Acetylpyrrolidine-2-carboxamido)-4-(dimethylcarbamoyl)-6,10-dioxo-1,3,4,5,6,7,8,10-octahydrobenzo[j][1]oxa[8]thia[5]azacyclododecin-14-yl)benzoic Acid] gave a logD [2] of under -1.5 and a solubility [3] of over 850 µM.
`CC(=O)N1CCC[C@H]1C(=O)N[C@@H]1COC(=O)c2cccc(-c3cc(C)c(C(=O)O)c(C)c3)c2CSC[C@H](C(=O)N(C)C)NC1=O` [Compound 77, 4-((4S,7R)-7-((S)-1-Acetylpyrrolidine-2-carboxamido)-4-(dimethylcarbamoyl)-6,10-dioxo-1,3,4,5,6,7,8,10-octahydrobenzo[j][1]oxa[8]thia[5]azacyclododecin-14-yl)-2,6-dimethylbenzoic Acid] showed a logD [2] of under -1.4 and a solubility [3] of 965 ± 38 µM (≈ 616 µg/mL).
Compound `CC(=O)N1CCC[C@H]1C(=O)N[C@@H]1COC(=O)c2cccc(-c3cc(F)c(C(=O)O)c(F)c3)c2CSC[C@H](C(=O)N(C)C)NC1=O` [Compound 78, 4-((4S,7R)-7-((S)-1-Acetylpyrrolidine-2-carboxamido)-4-(dimethylcarbamoyl)-6,10-dioxo-1,3,4,5,6,7,8,10-octahydrobenzo[j][1]oxa[8]thia[5]azacyclododecin-14-yl)-2,6-difluorobenzoic Acid] has a logD [2] of under -0.8 and a solubility [3] of over 1000 µM.
Compound `COC(=O)CCC(=O)N1CCC[C@H]1C(=O)N[C@@H]1COC(=O)c2ccccc2CSC[C@H](C(=O)N(C)C)NC1=O` [Compound S3] has a Kd [4] of 17.1 µM.
`CN(C)C(=O)[C@H]1CSCc2ccccc2C(=O)OC[C@@H](NC(=O)[C@@H]2CCCN2C(=O)c2cccn(C)c2=O)C(=O)N1` [Compound S7] showed a Kd [4] of 14.7 µM.
Work on `CN(C)C(=O)[C@H]1CSCc2ccccc2C(=O)OC[C@@H](NC(=O)[C@@H]2CCCN2C(=O)c2ccccc2NS(C)(=O)=O)C(=O)N1` [Compound S8] yielded a Kd [4] of 15.3 µM.
With `CC(=O)N(CC(=O)N1CCC[C@H]1C(=O)N[C@@H]1COC(=O)c2ccccc2CSC[C@H](C(=O)N(C)C)NC1=O)c1ccccc1` [Compound S11] the Kd [4] was 63.6 µM.
`CN(C)C(=O)[C@H]1CSCc2ccccc2C(=O)OC[C@@H](NC(=O)[C@@H]2CCCN2C(=O)Cc2cc3ccccc3s2)C(=O)N1` [Compound S13] showed a Kd [4] of 35.4 µM.
`CN(C)C(=O)[C@H]1CSCc2ccccc2C(=O)OC[C@@H](NC(=O)[C@@H]2CCCN2C(=O)Cc2cccnc2)C(=O)N1` [Compound S16] showed a Kd [4] of 51 µM.
In the case of `CN(C)C(=O)[C@H]1CSCc2ccccc2C(=O)OC[C@@H](NC(=O)[C@@H]2CCCN2C(=O)c2ccccc2-n2cnnn2)C(=O)N1` [Compound S21], the Kd [4] is reported as 13 µM.
